Test results taken from the supplement of paper PMC10627819.

Columns and labels:
Assay in all cases: fitness (endpoint OD595 vs no drug) (fraction); higher = more growth
S. aureus DSM 20231 = system: S. aureus DSM 20231
Outline: (§1)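 Fitness expresses the optical density reached at the stationary-phase transition as a fraction of the robust mean of no-drug control wells. It is capped at 1. Measurements were OD595 every 30 min for 14 h at 37 °C after inoculation of 384-well plates at OD595 0.01 (30 µl, or 55 µl for S. pneumoniae), minus the first reading.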

B. subtilis 168 = system: B. subtilis 168
Outline: as §1

S. pneumoniae D39V = system: S. pneumoniae D39V
Outline: as §1
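Further: OD595 on entry to stationary phase over no-drug wells; at most 1.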

CN(C)[C@@H]1C(O)=C(C(N)=O)C(=O)[C@@]2(O)C(O)=C3C(=O)c4c(O)ccc(Cl)c4[C@@](C)(O)[C@H]3C[C@@H]12 [Chlortetracycline] + CN(N=O)C(=O)N[C@@H](C=O)[C@@H](O)[C@H](O)[C@H](O)CO [Streptozotocin]
fitness, one replicate
Settings | partner 0.15 µg/mL | partner 0.3 µg/mL | partner 0.6 µg/mL | partner 1.2 µg/mL | partner 2.4 µg/mL | partner 4.8 µg/mL
S. aureus DSM 20231, first compound 0.006 µg/mL | 0.699 | 0.621 | 0.622 | – | – | –
S. pneumoniae D39V, first compound 0.012 µg/mL | – | – | – | 0.889 | 0.893 | 0.796
S. pneumoniae D39V, first compound 0.024 µg/mL | – | – | – | 0.858 | 0.798 | 0.659
S. pneumoniae D39V, first compound 0.048 µg/mL | – | – | – | 0.737 | 0.8 | 0.577

fitness
Settings | partner 0.15 µg/mL | partner 0.3 µg/mL | partner 0.6 µg/mL | partner 1.2 µg/mL | partner 2.4 µg/mL | partner 4.8 µg/mL
B. subtilis 168, first compound 0.0475 µg/mL | 0.901 | 0.934 | 0.956 | – | – | –
B. subtilis 168, first compound 0.095 µg/mL | 0.786 | 0.762 | 0.784 | – | – | –
B. subtilis 168, first compound 0.19 µg/mL | 0.533 | 0.547 | 0.556 | – | – | –
S. aureus DSM 20231, first compound 0.012 µg/mL | 0.503 | 0.532 | 0.507 | – | – | –
S. aureus DSM 20231, first compound 0.024 µg/mL | 0.227 | 0.232 | 0.189 | – | – | –
S. aureus DSM 20231, first compound 0.048 µg/mL | 0.0717 | 0.13 | 0.059 | – | – | –
S. pneumoniae D39V, first compound 0.375 µg/mL | – | – | – | 0.0355 | 0.0337 | 0.0486
S. pneumoniae D39V, first compound 0.75 µg/mL | – | – | – | 0.0646 | 0.0497 | 0.0485
S. pneumoniae D39V, first compound 1.5 µg/mL | – | – | – | 0.0765 | 0.0322 | 0.0617

CN(C)[C@@H]1C(O)=C(C(N)=O)C(=O)[C@@]2(O)C(O)=C3C(=O)c4c(O)ccc(Cl)c4[C@@](C)(O)[C@H]3C[C@@H]12 [Chlortetracycline] + CCC[C@@H]1C[C@@H](C(=O)N[C@@H]([C@H]2O[C@H](SC)[C@H](O)[C@@H](O)[C@H]2O)[C@@H](C)O)N(C)C1 [Lincomycin]
one replicate
Settings | fitness
B. subtilis 168, first compound 0.0475 µg/mL, partner 0.8 µg/mL | 0.845
B. subtilis 168, first compound 0.0475 µg/mL, partner 1.6 µg/mL | 0.761
B. subtilis 168, first compound 0.095 µg/mL, partner 0.8 µg/mL | 0.692
B. subtilis 168, first compound 0.095 µg/mL, partner 1.6 µg/mL | 0.5
B. subtilis 168, first compound 0.19 µg/mL, partner 0.8 µg/mL | 0.0991
B. subtilis 168, first compound 0.19 µg/mL, partner 1.6 µg/mL | 0.0613
S. aureus DSM 20231, first compound 0.006 µg/mL, partner 0.1 µg/mL | 0.712
S. aureus DSM 20231, first compound 0.006 µg/mL, partner 0.2 µg/mL | 0.483
S. aureus DSM 20231, first compound 0.006 µg/mL, partner 0.4 µg/mL | 0.203

Settings | fitness
B. subtilis 168, first compound 0.0475 µg/mL, partner 0.1 µg/mL | 0.87
B. subtilis 168, first compound 0.0475 µg/mL, partner 0.2 µg/mL | 0.862
B. subtilis 168, first compound 0.0475 µg/mL, partner 0.4 µg/mL | 0.85
B. subtilis 168, first compound 0.095 µg/mL, partner 0.1 µg/mL | 0.805
B. subtilis 168, first compound 0.095 µg/mL, partner 0.2 µg/mL | 0.817
B. subtilis 168, first compound 0.095 µg/mL, partner 0.4 µg/mL | 0.803
B. subtilis 168, first compound 0.19 µg/mL, partner 0.1 µg/mL | 0.648
B. subtilis 168, first compound 0.19 µg/mL, partner 0.2 µg/mL | 0.489
B. subtilis 168, first compound 0.19 µg/mL, partner 0.4 µg/mL | 0.406
S. aureus DSM 20231, first compound 0.012 µg/mL, partner 0.1 µg/mL | 0.472
S. aureus DSM 20231, first compound 0.012 µg/mL, partner 0.2 µg/mL | 0.259
S. aureus DSM 20231, first compound 0.012 µg/mL, partner 0.4 µg/mL | 0.0974
S. aureus DSM 20231, first compound 0.024 µg/mL, partner 0.1 µg/mL | 0.233
S. aureus DSM 20231, first compound 0.024 µg/mL, partner 0.2 µg/mL | 0.104
S. aureus DSM 20231, first compound 0.024 µg/mL, partner 0.4 µg/mL | 0.0491
S. aureus DSM 20231, first compound 0.048 µg/mL, partner 0.1 µg/mL | 0.0441
S. aureus DSM 20231, first compound 0.048 µg/mL, partner 0.2 µg/mL | 0.0385
S. aureus DSM 20231, first compound 0.048 µg/mL, partner 0.4 µg/mL | 0.0333
S. pneumoniae D39V, first compound 0.012 µg/mL, partner 0.215 µg/mL | 0.802
S. pneumoniae D39V, first compound 0.012 µg/mL, partner 0.43 µg/mL | 0.716
S. pneumoniae D39V, first compound 0.012 µg/mL, partner 0.86 µg/mL | 0.268
S. pneumoniae D39V, first compound 0.024 µg/mL, partner 0.215 µg/mL | 0.769
S. pneumoniae D39V, first compound 0.024 µg/mL, partner 0.43 µg/mL | 0.666
S. pneumoniae D39V, first compound 0.024 µg/mL, partner 0.86 µg/mL | 0.246
S. pneumoniae D39V, first compound 0.048 µg/mL, partner 0.215 µg/mL | 0.636
S. pneumoniae D39V, first compound 0.048 µg/mL, partner 0.43 µg/mL | 0.426
S. pneumoniae D39V, first compound 0.048 µg/mL, partner 0.86 µg/mL | 0.222
S. pneumoniae D39V, first compound 0.375 µg/mL, partner 0.2 µg/mL | 0.0295
S. pneumoniae D39V, first compound 0.375 µg/mL, partner 0.4 µg/mL | 0.0454
S. pneumoniae D39V, first compound 0.375 µg/mL, partner 0.8 µg/mL | 0.0386
S. pneumoniae D39V, first compound 0.75 µg/mL, partner 0.2 µg/mL | 0.0393
S. pneumoniae D39V, first compound 0.75 µg/mL, partner 0.4 µg/mL | 0.0417
S. pneumoniae D39V, first compound 0.75 µg/mL, partner 0.8 µg/mL | 0.0458
S. pneumoniae D39V, first compound 1.5 µg/mL, partner 0.2 µg/mL | 0.0273
S. pneumoniae D39V, first compound 1.5 µg/mL, partner 0.4 µg/mL | 0.035
S. pneumoniae D39V, first compound 1.5 µg/mL, partner 0.8 µg/mL | 0.0234
